Measurements reported in the kinase profiling compilation of Christmann-Franck et al. (2016).

What was measured:
Experiment in all cases: radiometric filter-binding kinase assay
IKBKB (human) = IKBKB (human) (UniProt O14920)
MAPKAPK2 (human) = MAPKAPK2 (human) (UniProt P49137)
CDK2 CCNA2 (human) = CDK2 CCNA2 (human) (UniProt P20248+P24941)
PIM3 (human) = PIM3 (human) (UniProt Q86V86)
CHEK1 (human) = CHEK1 (human) (UniProt O14757)
[1] = test system: RPS6KB1 (human), P23443 [T412E]
MAPK9 (human) = MAPK9 (human) (UniProt P45984)
SRPK1 (human) = SRPK1 (human) (UniProt Q96SB4)
STK3 (human) = STK3 (human) (UniProt Q13188)
MAP2K1 (human) = MAP2K1 (human) (UniProt Q02750)
MARK3 (human) = MARK3 (human) (UniProt P27448)
RPS6KA5 KD1 KD2 (human) = RPS6KA5 KD1 KD2 (human) (UniProt O75582)
EEF2K (human) = EEF2K (human) (UniProt O00418)
CSNK2A1 (human) = CSNK2A1 (human) (UniProt P68400)
PKN2 (human) = PKN2 (human) (UniProt Q16513)
MYLK (human) = MYLK (human) (UniProt Q15746)
PIM2 (human) = PIM2 (human) (UniProt Q9P1W9)
PIM1 (human) = PIM1 (human) (UniProt P11309)
PAK6 (human) = PAK6 (human) (UniProt Q9NQU5)
MKNK2 (human) = MKNK2 (human) (UniProt Q9HBH9)
NEK6 (human) = NEK6 (human) (UniProt Q9HC98)
Chain of NEK6 (human) (Q9HC98 whole entry, looked up): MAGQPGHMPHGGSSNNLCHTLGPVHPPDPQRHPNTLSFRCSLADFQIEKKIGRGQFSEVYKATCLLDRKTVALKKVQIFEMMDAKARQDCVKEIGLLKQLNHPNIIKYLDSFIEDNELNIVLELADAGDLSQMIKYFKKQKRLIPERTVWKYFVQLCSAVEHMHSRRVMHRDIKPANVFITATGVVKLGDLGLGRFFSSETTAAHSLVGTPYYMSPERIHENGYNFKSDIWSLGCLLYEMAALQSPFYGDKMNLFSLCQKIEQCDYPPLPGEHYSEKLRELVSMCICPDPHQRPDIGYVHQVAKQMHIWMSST

Chain of PIM2 (human) (Q9P1W9 whole entry, looked up): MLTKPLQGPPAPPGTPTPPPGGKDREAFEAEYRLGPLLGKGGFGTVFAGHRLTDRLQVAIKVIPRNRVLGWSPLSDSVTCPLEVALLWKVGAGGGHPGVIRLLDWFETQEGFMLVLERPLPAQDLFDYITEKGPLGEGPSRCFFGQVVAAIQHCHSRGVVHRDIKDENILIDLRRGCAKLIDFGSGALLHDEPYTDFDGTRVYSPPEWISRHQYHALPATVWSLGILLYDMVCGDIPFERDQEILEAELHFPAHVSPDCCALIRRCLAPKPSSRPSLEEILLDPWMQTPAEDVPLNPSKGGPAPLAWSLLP
Chain of MAP2K1 (human) (Q02750 whole entry, looked up): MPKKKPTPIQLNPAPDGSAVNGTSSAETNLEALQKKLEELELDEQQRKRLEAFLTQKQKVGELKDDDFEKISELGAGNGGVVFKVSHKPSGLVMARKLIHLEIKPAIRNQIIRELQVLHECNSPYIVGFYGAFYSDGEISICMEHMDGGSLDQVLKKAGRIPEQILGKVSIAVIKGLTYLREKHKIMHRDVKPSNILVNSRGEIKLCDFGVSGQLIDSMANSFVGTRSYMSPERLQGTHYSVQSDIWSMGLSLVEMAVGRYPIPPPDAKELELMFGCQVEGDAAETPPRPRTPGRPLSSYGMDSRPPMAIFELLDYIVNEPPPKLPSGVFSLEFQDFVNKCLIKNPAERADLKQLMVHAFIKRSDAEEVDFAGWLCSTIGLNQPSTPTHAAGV
Chain of STK3 (human) (Q13188 whole entry, looked up): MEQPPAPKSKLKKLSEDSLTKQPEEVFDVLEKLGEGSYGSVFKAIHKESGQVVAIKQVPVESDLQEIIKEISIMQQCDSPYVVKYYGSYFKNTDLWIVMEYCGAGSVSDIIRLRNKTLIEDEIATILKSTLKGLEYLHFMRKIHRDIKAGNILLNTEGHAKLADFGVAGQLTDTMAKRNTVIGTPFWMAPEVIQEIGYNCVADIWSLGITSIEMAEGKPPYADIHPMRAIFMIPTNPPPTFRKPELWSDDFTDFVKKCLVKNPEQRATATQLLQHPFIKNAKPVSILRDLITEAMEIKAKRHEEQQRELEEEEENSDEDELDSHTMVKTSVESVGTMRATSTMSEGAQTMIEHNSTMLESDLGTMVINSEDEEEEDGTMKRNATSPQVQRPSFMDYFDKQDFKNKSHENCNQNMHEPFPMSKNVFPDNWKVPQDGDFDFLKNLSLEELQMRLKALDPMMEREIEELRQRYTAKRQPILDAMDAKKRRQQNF
Chain of RPS6KB1 (human), P23443 [T412E] (P23443 whole entry T412E, looked up): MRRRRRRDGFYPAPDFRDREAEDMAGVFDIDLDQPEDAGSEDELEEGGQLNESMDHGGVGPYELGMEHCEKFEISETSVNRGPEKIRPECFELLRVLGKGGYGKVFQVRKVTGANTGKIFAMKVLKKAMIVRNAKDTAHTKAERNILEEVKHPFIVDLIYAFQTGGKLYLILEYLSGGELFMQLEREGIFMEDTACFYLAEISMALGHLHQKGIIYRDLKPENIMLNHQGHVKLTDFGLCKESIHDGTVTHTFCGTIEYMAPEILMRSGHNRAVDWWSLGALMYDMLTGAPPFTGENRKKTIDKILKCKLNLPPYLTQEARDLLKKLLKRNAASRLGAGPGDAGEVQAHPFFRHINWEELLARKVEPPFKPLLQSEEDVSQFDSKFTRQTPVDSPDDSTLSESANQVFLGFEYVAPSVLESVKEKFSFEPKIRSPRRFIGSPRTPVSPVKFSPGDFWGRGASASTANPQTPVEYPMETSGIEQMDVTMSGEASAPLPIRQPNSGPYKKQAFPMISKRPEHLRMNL
Chain of MYLK (human) (Q15746 whole entry, looked up): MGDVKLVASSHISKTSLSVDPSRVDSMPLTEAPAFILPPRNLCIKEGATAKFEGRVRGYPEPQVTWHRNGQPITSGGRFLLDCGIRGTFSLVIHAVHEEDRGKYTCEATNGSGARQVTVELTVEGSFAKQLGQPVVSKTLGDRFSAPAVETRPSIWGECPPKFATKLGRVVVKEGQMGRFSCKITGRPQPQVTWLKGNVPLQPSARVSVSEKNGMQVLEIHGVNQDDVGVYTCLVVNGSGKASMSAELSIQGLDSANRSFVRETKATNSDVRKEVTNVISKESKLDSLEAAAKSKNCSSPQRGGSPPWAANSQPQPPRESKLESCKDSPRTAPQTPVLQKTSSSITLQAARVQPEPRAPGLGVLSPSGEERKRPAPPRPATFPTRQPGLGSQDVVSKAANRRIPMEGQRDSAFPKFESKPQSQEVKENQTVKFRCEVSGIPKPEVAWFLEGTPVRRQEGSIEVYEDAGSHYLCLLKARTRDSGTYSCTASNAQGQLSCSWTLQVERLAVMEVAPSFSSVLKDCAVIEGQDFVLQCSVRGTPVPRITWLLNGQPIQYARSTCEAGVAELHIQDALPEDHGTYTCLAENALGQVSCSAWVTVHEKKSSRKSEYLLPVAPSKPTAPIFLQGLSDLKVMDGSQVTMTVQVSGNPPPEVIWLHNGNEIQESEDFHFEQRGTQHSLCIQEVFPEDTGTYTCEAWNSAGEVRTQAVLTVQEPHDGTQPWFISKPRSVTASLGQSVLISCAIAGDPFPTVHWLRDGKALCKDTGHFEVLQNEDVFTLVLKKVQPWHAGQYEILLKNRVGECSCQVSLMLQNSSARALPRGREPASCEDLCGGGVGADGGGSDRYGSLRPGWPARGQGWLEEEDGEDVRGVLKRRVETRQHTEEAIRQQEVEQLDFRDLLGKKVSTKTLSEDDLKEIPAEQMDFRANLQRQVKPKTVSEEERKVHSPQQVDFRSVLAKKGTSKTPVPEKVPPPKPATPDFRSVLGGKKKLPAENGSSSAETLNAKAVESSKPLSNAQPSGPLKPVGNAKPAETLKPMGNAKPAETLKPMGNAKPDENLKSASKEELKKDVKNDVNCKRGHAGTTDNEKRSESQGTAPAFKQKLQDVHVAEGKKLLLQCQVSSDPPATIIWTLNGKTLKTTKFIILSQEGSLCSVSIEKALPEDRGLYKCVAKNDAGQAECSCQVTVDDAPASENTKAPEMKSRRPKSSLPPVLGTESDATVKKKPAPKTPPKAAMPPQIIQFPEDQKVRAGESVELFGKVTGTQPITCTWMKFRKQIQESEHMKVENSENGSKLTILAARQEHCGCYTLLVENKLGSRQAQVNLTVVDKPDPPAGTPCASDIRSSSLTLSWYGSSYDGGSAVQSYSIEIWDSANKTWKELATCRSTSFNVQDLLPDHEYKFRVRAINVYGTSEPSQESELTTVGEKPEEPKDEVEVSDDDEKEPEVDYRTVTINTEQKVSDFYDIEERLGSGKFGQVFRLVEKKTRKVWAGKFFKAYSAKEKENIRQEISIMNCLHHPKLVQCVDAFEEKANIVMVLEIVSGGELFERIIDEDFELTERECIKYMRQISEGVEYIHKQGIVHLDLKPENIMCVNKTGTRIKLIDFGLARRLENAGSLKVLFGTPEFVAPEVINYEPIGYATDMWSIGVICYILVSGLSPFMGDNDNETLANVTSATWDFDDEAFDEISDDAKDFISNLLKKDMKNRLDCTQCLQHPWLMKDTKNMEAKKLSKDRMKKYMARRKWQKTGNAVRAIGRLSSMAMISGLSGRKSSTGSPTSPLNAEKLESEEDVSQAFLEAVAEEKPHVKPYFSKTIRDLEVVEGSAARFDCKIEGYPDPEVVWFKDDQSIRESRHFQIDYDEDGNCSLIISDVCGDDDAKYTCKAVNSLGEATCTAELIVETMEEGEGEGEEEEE
Chain of EEF2K (human) (O00418 whole entry, looked up): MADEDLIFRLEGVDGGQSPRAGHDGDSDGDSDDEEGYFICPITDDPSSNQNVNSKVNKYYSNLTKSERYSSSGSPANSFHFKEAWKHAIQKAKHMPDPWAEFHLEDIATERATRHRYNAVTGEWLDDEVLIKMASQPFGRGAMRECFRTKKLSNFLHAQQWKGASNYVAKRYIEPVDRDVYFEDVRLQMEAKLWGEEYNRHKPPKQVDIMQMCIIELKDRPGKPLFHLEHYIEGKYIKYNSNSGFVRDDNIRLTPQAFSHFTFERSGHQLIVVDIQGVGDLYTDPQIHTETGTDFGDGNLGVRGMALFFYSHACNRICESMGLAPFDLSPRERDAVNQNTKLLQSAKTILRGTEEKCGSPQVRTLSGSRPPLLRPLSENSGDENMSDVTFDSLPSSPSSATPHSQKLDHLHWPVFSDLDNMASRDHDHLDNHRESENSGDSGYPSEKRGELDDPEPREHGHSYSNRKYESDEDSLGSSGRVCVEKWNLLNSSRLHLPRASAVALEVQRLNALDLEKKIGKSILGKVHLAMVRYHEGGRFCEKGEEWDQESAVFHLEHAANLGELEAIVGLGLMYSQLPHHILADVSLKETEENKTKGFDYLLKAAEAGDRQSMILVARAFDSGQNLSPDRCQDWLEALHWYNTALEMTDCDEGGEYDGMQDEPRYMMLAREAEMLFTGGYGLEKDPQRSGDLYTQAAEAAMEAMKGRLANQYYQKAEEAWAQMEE

Cn1nc(Nc2ccc(F)cc2)c2c(N)ncnc21
residual activity (IKBKB (human); compound 1.0 µM): 98% | residual activity (IKBKB (human); compound 10.0 µM): 96% | residual activity (MAPKAPK2 (human); compound 1.0 µM): 97% | residual activity (MAPKAPK2 (human); compound 10.0 µM): 95% | residual activity (CDK2 CCNA2 (human); compound 1.0 µM): 98% | residual activity (CDK2 CCNA2 (human); compound 10.0 µM): 96% | residual activity (PIM3 (human); compound 1.0 µM): 101% | residual activity (PIM3 (human); compound 10.0 µM): 95% | residual activity (CHEK1 (human); compound 1.0 µM): 118% | residual activity (CHEK1 (human); compound 10.0 µM): 112% | residual activity ([1]; compound 1.0 µM): 114% | residual activity ([1]; compound 10.0 µM): 114% | residual activity (MAPK9 (human); compound 1.0 µM): 122% | residual activity (MAPK9 (human); compound 10.0 µM): 124% | residual activity (SRPK1 (human); compound 1.0 µM): 137% | residual activity (SRPK1 (human); compound 10.0 µM): 129% | residual activity (STK3 (human); compound 1.0 µM): 102% | residual activity (STK3 (human); compound 10.0 µM): 104% | residual activity (MAP2K1 (human); compound 1.0 µM): 108% | residual activity (MAP2K1 (human); compound 10.0 µM): 104% | residual activity (MARK3 (human); compound 1.0 µM): 82% | residual activity (MARK3 (human); compound 10.0 µM): 79% | residual activity (RPS6KA5 KD1 KD2 (human); compound 1.0 µM): 97% | residual activity (RPS6KA5 KD1 KD2 (human); compound 10.0 µM): 84% | residual activity (EEF2K (human); compound 1.0 µM): 102% | residual activity (EEF2K (human); compound 10.0 µM): 103% | residual activity (CSNK2A1 (human); compound 1.0 µM): 91% | residual activity (CSNK2A1 (human); compound 10.0 µM): 96% | residual activity (PKN2 (human); compound 1.0 µM): 103% | residual activity (PKN2 (human); compound 10.0 µM): 109% | residual activity (MYLK (human); compound 1.0 µM): 94% | residual activity (MYLK (human); compound 10.0 µM): 107% | residual activity (PIM2 (human); compound 1.0 µM): 100% | residual activity (PIM2 (human); compound 10.0 µM): 109% | residual activity (PIM1 (human); compound 1.0 µM): 111% | residual activity (PIM1 (human); compound 10.0 µM): 115% | residual activity (PAK6 (human); compound 1.0 µM): 113% | residual activity (PAK6 (human); compound 10.0 µM): 101% | residual activity (MKNK2 (human); compound 1.0 µM): 104% | residual activity (MKNK2 (human); compound 10.0 µM): 103% | residual activity (NEK6 (human); compound 1.0 µM): 95% | residual activity (NEK6 (human); compound 10.0 µM): 95%

COc1ccc2c(c1)c1c3c(c4c5ccccc5n(C)c4c1n2CC(O)CN(C)C)C(=O)NC3=O (stereo not given)
residual activity (IKBKB (human); compound 0.1 µM): 104% | residual activity (IKBKB (human); compound 1.0 µM): 94% | residual activity (IKBKB (human); compound 10.0 µM): 80% | residual activity (MAPKAPK2 (human); compound 0.1 µM): 107% | residual activity (MAPKAPK2 (human); compound 1.0 µM): 93% | residual activity (MAPKAPK2 (human); compound 10.0 µM): 62% | residual activity (CDK2 CCNA2 (human); compound 0.1 µM): 95% | residual activity (CDK2 CCNA2 (human); compound 1.0 µM): 90% | residual activity (CDK2 CCNA2 (human); compound 10.0 µM): 81% | residual activity (PIM3 (human); compound 0.1 µM): 2% | residual activity (PIM3 (human); compound 1.0 µM): 1% | residual activity (PIM3 (human); compound 10.0 µM): 1% | residual activity (CHEK1 (human); compound 0.1 µM): 56% | residual activity (CHEK1 (human); compound 1.0 µM): 13% | residual activity (CHEK1 (human); compound 10.0 µM): 4% | residual activity ([1]; compound 0.1 µM): 11% | residual activity ([1]; compound 1.0 µM): 2% | residual activity ([1]; compound 10.0 µM): 1% | residual activity (MAPK9 (human); compound 0.1 µM): 92% | residual activity (MAPK9 (human); compound 1.0 µM): 63% | residual activity (MAPK9 (human); compound 10.0 µM): 35% | residual activity (SRPK1 (human); compound 0.1 µM): 113% | residual activity (SRPK1 (human); compound 1.0 µM): 89% | residual activity (SRPK1 (human); compound 10.0 µM): 77% | residual activity (STK3 (human); compound 0.1 µM): 20% | residual activity (STK3 (human); compound 1.0 µM): 3% | residual activity (STK3 (human); compound 10.0 µM): 2% | residual activity (MAP2K1 (human); compound 0.1 µM): 82% | residual activity (MAP2K1 (human); compound 1.0 µM): 27% | residual activity (MAP2K1 (human); compound 10.0 µM): 16% | residual activity (MARK3 (human); compound 0.1 µM): 93% | residual activity (MARK3 (human); compound 1.0 µM): 68% | residual activity (MARK3 (human); compound 10.0 µM): 33% | residual activity (RPS6KA5 KD1 KD2 (human); compound 0.1 µM): 11% | residual activity (RPS6KA5 KD1 KD2 (human); compound 1.0 µM): 3% | residual activity (RPS6KA5 KD1 KD2 (human); compound 10.0 µM): 3% | residual activity (EEF2K (human); compound 0.1 µM): 106% | residual activity (EEF2K (human); compound 1.0 µM): 106% | residual activity (EEF2K (human); compound 10.0 µM): 108% | residual activity (CSNK2A1 (human); compound 0.1 µM): 105% | residual activity (CSNK2A1 (human); compound 1.0 µM): 83% | residual activity (CSNK2A1 (human); compound 10.0 µM): 71% | residual activity (PKN2 (human); compound 0.1 µM): 63% | residual activity (PKN2 (human); compound 1.0 µM): 13% | residual activity (PKN2 (human); compound 10.0 µM): 4% | residual activity (MYLK (human); compound 0.1 µM): 15% | residual activity (MYLK (human); compound 1.0 µM): 6% | residual activity (MYLK (human); compound 10.0 µM): 3% | residual activity (PIM2 (human); compound 0.1 µM): 38% | residual activity (PIM2 (human); compound 1.0 µM): 6% | residual activity (PIM2 (human); compound 10.0 µM): 1% | residual activity (PIM1 (human); compound 0.1 µM): 9% | residual activity (PIM1 (human); compound 1.0 µM): 1% | residual activity (PIM1 (human); compound 10.0 µM): 2% | residual activity (PAK6 (human); compound 0.1 µM): 107% | residual activity (PAK6 (human); compound 1.0 µM): 82% | residual activity (PAK6 (human); compound 10.0 µM): 71% | residual activity (MKNK2 (human); compound 0.1 µM): 90% | residual activity (MKNK2 (human); compound 1.0 µM): 88% | residual activity (MKNK2 (human); compound 10.0 µM): 70% | residual activity (NEK6 (human); compound 0.1 µM): 99% | residual activity (NEK6 (human); compound 1.0 µM): 87% | residual activity (NEK6 (human); compound 10.0 µM): 84%
